Reference: a melting point compilation (Tetko et al.; mined from patent text by program, amines drawn as free bases though some values may be those of a salt)

Point of comparison: `CCN(CCc1c[nH]c2ccc(F)cc12)C1COc2c(F)ccc(C(N)=O)c2C1` (centres undefined), melting point 127 °C. Against it:
- COc1ccc(CSc2ccc([N+](=O)[O-])cc2C(=O)O)cc1 — higher, 200 to 204 °C
- N#Cc1ccc(-c2ccc(-c3ccc(C#N)cn3)o2)cc1 — higher, 301 to 302 °C
- CC(=O)c1ccc(OCCOc2ccc3ccccc3c2)c(Cl)c1 — higher, 164 to 166 °C
- CN(CCNC(=NCCCOc1cccc(CN2CCCCC2)c1)NC#N)CCN(Cc1ccc(F)cc1)c1ccccn1 — lower, 106 °C
- CCNc1nc(C)c(-c2ccnc(Nc3ccc(N4CCSCC4)cc3)n2)s1 — higher, 207 to 209 °C
- O=C1Nc2ccccc2C12COc1ccc3c(c12)N(Cc1cccnc1)ON3 (centres undefined) — higher, 230 to 232 °C
- CN(C(=O)CCCOc1ccc2nc3[nH]c(=O)n(C)c3cc2c1)C1CCCCCC1 — higher, 234 to 236 °C
- CC(C)c1cccc(C(C)C)c1NC(=O)CNC(c1ccccc1)c1ccccn1 (centres undefined) — higher, 135 to 136 °C
- CSc1nn(-c2c(Cl)cc(Cl)cc2Cl)c(N(C)C)c1CC1C(=O)NC(=O)c2ccccc21 (centres undefined) — higher, 186 to 187 °C
- c1ccc(CCc2ccc[nH]2)cc1 — lower, 40 to 42 °C
- CCN1C(=O)C(C(=O)Nc2ccc(F)cc2)c2cc3c(cc21)CC(C)(C)O3 (centres undefined) — higher, 160 to 162 °C
- Cc1c(CC(=O)O)c2cc(OCc3ccccc3)ccc2n1Cc1ccc(Cl)cc1 — higher, 140 to 142 °C
- Cc1ccc(CCC(=O)NCCCCN2CCN(C(c3ccccc3)c3ccccc3)CC2)cn1 — not separable, 126 to 127 °C
- CCOC(=O)C1=C(C)Nc2nc(N3CCOCC3)nc(N3CCOCC3)c2C1c1ccncc1 (centres undefined) — higher, 209 °C
- CCCCNC(=S)Nc1ccc(NNC=O)c(OC)c1 — higher, 130 to 132 °C
- CS(=O)(=O)NC(=O)c1cccc(N)c1 — higher, 153 to 155 °C
- Nc1nc(N)nc(-c2ccc3c(c2)OC(F)(F)C(F)(F)O3)n1 — higher, 176 to 179 °C
- CON(C)C(=O)C1(C)CCc2c(C)c(O)c(C)c(C)c2O1 (centres undefined) — higher, 139 to 140 °C
- NCC(O)C1=CC2(CCCC2)c2ccccc21 (centres undefined) — lower, 76 to 78 °C
- Cc1cc(=O)c2c([nH]1)CCOC2 — higher, > 285 °C
- CNCCCOc1ccc(-c2nnc(CSCCOc3ccccc3)o2)cc1 — lower, 40 to 44 °C
- CC1(C)OC(=O)C(Oc2ccc(Br)cc2)=C1c1ccc(S(C)(=O)=O)cc1 — higher, 150 to 152 °C
- Cc1nc(N2CCC(Cc3ccc(OC(F)(F)F)cc3)C2=O)sc1C(=O)NCc1ccc(F)cc1 (centres undefined) — higher, 165 to 166 °C
- c1cc(N2CCCN(c3ccc(-c4ccc5c(c4)OCO5)cn3)CC2)ncc1-c1ccc2c(c1)OCO2 — higher, 235 to 237 °C
- CCn1ncc2c3noc(C)c3cnc21 — higher, 181 to 182 °C
- Cc1nn(-c2cc(I)c(Cl)cc2F)c(=O)n1C(F)F — not separable, 125 to 127 °C
- CCOc1cc2c(c3c1OC(C)(C)C3)C(c1cccc(N3C(=O)CNC3=O)c1)=NC(C)(C)C2 — higher, 202 to 204 °C
- CCOC(=O)C1=C(C)NC(C)=C(C(=O)OC)C1c1cccc(C(F)(F)F)c1 (single isomer, unassigned; (-)) — higher, 134 to 135 °C
- Cn1cnc2c(=O)[nH]c(N)nc21 — higher, > 300 °C
- CCOc1cc(-c2cc(C(F)F)n3ncc(C(=O)Nc4cccc(S(N)(=O)=O)c4)c3n2)ccc1C(F)(F)F — higher, 254 °C
- Cn1c(=O)cc(-c2nc(-c3ccccc3)cs2)c2cc(C(=O)c3ccc(Cl)cc3)ccc21 — higher, 216 °C
- CC(C)(O)c1cc2cc(OCC(=O)O)c(Cl)c(Cl)c2s1 — higher, 194 to 196 °C
- CCCC1=C(C(=O)OCC)C(C)(c2ccccc2)c2c[nH]nc2N1 (centres undefined) — higher, 207 °C
- OC12CC3CC(O)(C1)CC(O)(C3)C2 — higher, 217 °C
- CC(C)(C)c1cc(CS[C@@H]2CCCC[C@H]2SCc2cc(C(C)(C)C)cc(C(C)(C)C)c2O)c(O)c(C(C)(C)C)c1 (relative stereo) — lower, 104 to 106 °C
- N=c1cc(NC(=S)NCc2ccccc2)nc2n1CCCS2 — higher, 189 to 190 °C
- CCCCC(=O)OCCOCn1cnc2c(=O)[nH]c(N)nc21 — higher, 215 to 217 °C
- COC(=O)C(=O)Oc1cc(-n2c(=O)cc(C(F)(F)F)n(C)c2=O)c(F)cc1Cl — lower, 103 to 105 °C
- CCCCCCCCCCCc1cc2ccc(C(=O)OCC)cc2[nH]1 — lower, 84 to 86 °C
- CCCOC(=O)Nc1cnc(OCCC)c(-c2nc3c(CCC)nn(C)c3c(=O)[nH]2)c1 — higher, 210 to 211 °C
- COC(=O)c1cncn1C1c2ccccc2CCC1(C)C (centres undefined) — lower, 66 to 67.5 °C
- Cc1cc(Cl)nnc1-c1ccccc1 — lower, 122 °C
- CCn1c(=O)c2[nH]c(/C=C/c3ccc(C)cc3)nc2n(CC)c1=O — higher, > 280 °C
- Nc1cc(F)nc(F)c1F — lower, 94 to 96 °C
- CCOC(=O)C(=O)Nc1ncccc1C#N — lower, 95 to 97 °C
- S=c1[nH]c(-c2ccc(Br)cc2)c(-c2ccc(Br)cc2)[nH]1 — higher, 288 °C
- CC(C)=CCNC(=O)CCC(NC(=O)C=Cc1ccco1)C(=O)NCC=C(C)C (centres undefined) — higher, 199 to 203 °C
- CN1C(C(=O)Nc2ccc(F)cc2)=C(O)c2ccc3ccccc3c2S1(=O)=O — higher, 284 to 285 °C
- Cc1c([N+](=O)[O-])oc2ccc(-c3ccc(CC(=O)O)cc3)cc12 — higher, 229 to 230 °C
- CCCNc1nc(-c2ccccc2)c(CCC(=O)OC)s1 — lower, 67 to 68 °C
- O=C(Nc1ccc(Cc2nnn[nH]2)cc1)C(F)(F)C(F)(F)C(F)(F)C(F)(F)C(F)(F)C(F)(F)C(F)(F)F — higher, 193 to 194 °C
- NC(=O)N(O)CC=Cc1cccc(F)c1Sc1ccc(F)cc1 — not separable, 127 to 128 °C
- Fc1ccc(-c2[nH]cc(C3=CC4CCC(C3)N4)c2-c2ccncc2)cc1 (centres undefined) — higher, 212 to 213 °C
- CCC1(C)CC(O)CC(C)(C)N1OC(C)c1ccccc1 (centres undefined) — lower, 58 to 69 °C
- COc1ccc(CC(=O)O)cc1OCCCc1cn(-c2ccc(C(F)(F)F)cn2)nc1C(C)C — lower, 122 to 123 °C
- CC(C)COC(=O)Nc1cccc(Cn2ccc3cc(C(=O)O)ccc32)c1 — higher, 173 to 176 °C
- Nc1nc(NC2Cc3ccccc3C2)nc2c1ncn2C1OC(CO)C(O)C1O (centres undefined) — higher, 129 to 132 °C
- CCOC(=O)C(OC(C)=O)c1ccc(-c2ccc(-c3ccccc3)cc2)o1 (centres undefined) — higher, 136 to 140 °C
- O=c1ccc(-c2ccc(Cl)c(Cl)c2)nn1CN1CCN(Cn2nc(-c3ccc(Cl)c(Cl)c3)ccc2=O)CC1 — higher, 234 to 236 °C
- COc1cc(Oc2ccc(Cl)cc2)ccc1[N+](=O)[O-] — lower, 88 to 89 °C
- CCOC(=O)c1ncc2[nH]c3ccc(Br)cc3c2c1C — higher, 231 to 232 °C
- CCOC(=O)CC(=O)c1cc(O)c(O)c([N+](=O)[O-])c1 — higher, 136 to 137 °C
- CCCCCCCCCCC=NNC(=N)N — lower, 101 °C
- Cc1cc(O)c(O)cc1CC=Cc1ccccc1 — lower, 85 °C
- CNC(=O)CCC(C)=S — lower, 67 to 70 °C
- Cc1nc2c3c(c(C(=O)N4CCC4)cc2n1C)CCC1(Cc2ccccc2C1)N3 — higher, 222 to 223 °C
- Cc1cc(-n2ccnc2)c2cccc(OCc3c(Cl)ccc(S(=O)(=O)N4CCC[C@H]4C(N)=O)c3Cl)c2n1 — lower, 110 °C
- COC(=O)C(CCSC)NC(=O)c1ccc([N+](=O)[O-])cc1-c1ccccc1 (centres undefined) — lower, 98 to 101 °C
- CC(=O)OCc1c(C(=O)C(=O)O)c2cc(-c3ccc(OC(F)(F)F)cc3)ccc2n1Cc1ccc(C)cc1 — lower, 79 to 80 °C
- O=C(O)C1=Cc2cc(Cl)cc(-c3ccc(Cl)cc3)c2OC1C(F)(F)F (centres undefined) — higher, 206 to 207 °C
- COc1csc(C(=O)C2C(=O)N(C(N)=O)c3ccc(Cl)cc32)c1 (centres undefined) — higher, 221 to 223 °C
- COc1ccc(C(=O)C2=C(c3ccccc3)c3ccc(OC)cc3S2=O)cc1 (centres undefined) — higher, 191 to 192 °C
- CCOCCc1c(-c2ccccc2)n2nnnc2n2ncnc12 — lower, 114 °C
- Cc1cc(C)c2c(n1)CCCC2=O — lower, 54 to 57 °C
- CCCc1c(C(=O)C(C)C)c2ccc(C(N)=O)cc2n1Cc1c(Cl)cccc1Cl — higher, 208 to 209 °C
- O=C(NC(=Cc1ccccc1)c1cccs1)C(F)(F)F — higher, 158 °C
- Cc1ccc2nc(C)c(=O)n(-c3ccc(Cl)cc3)c2c1 — higher, 144 to 145 °C
- CCc1nc2c(N)nc3ccccc3c2n1CC1(O)CCN(C)CC1 — higher, 233 to 234 °C
- CCOC(=O)c1c(Nc2ccc(F)cc2[N+](=O)[O-])sc2c1CCCC2 — higher, 140 to 142 °C
- CCOC(=O)C(=NO)c1csc(NC(c2ccccc2)(c2ccccc2)c2ccccc2)n1 — higher, 260 °C
- COC(=O)CN1C(=O)CN=C(c2ccccc2Cl)c2ccccc21 — higher, 166 to 168 °C
- CC1=Nc2c(C)nn(C)c2C2=NCCN12 — higher, 174 to 177 °C
- CCOC(=O)c1c(Cl)c2sccc2[nH]c1=O — higher, 206 °C
- CC=C1C(=O)N2C(C(=O)OCc3ccc([N+](=O)[O-])cc3)=C(SCCNC(=O)OCc3ccc([N+](=O)[O-])cc3)CC12 (centres undefined) — higher, 160 to 161 °C
- COc1cc(-n2cccn2)ncn1 — lower, 108 to 109 °C
- Cn1c(COc2ccc(CC3SC(=O)NC3=O)cc2)nc2ccc(Oc3ccc(NC(=O)c4cccc(Cl)c4)cc3)cc21 (centres undefined) — higher, 238 to 239 °C
- CCCOc1ccc(C(CC(N)=O)N2C(=O)c3ccccc3C2=O)cc1 (centres undefined) — lower, 110 °C
- CS(=O)(=O)Nn1c(=O)[nH]c2cc(C(F)(F)F)c(-n3cnc(C#N)c3)cc2c1=O — higher, 143 to 145 °C
- Cc1cc(C)nc(Sc2ccnc3cc(Cl)ccc23)n1 — not separable, 127 to 130 °C
- CCC(CC)n1nnc2c(Nc3ccc(C(C)=O)cc3Br)nc(C)nc21 — higher, 153 to 154 °C
- COC(=O)c1cn2c(C)csc2n1 — higher, 170 to 173 °C
- O=c1ccc(Cl)cn1[C@@H]1c2ccccc2OCC[C@H]1O (relative stereo) — higher, 176 to 178 °C
- COc1cc(OC)nc(NC(=O)NS(=O)(=O)c2c([N+](=O)[O-])ccc3c2CCC3)n1 — higher, 162 to 172 °C
- COC(=O)c1ccc(C(=O)N2CCN(c3ncccc3N)CC2)cc1 — higher, 144 °C
- CCCCCCOc1ccc2c(CBr)c(OCCCCCC)ccc2c1CBr — lower, 110 to 112 °C
- C=C(c1c(C)n(CC)c2ccccc12)c1c(C)n(CC)c2ccccc12 — higher, 179 to 182 °C
- CCCCCCCCCCCCC(=O)CC — lower, 84 to 86 °C
- CC1OC(CN(C)C(=O)Nc2nnc(S(=O)(=O)N(C)C)s2)OC1C (centres undefined) — higher, 133 to 134 °C
